Experimental findings from ChEMBL document CHEMBL5360642, “Assimiloside A, a Glycolipid with Immunomodulatory Activity from the Northwestern Pacific Marine Sponge Hymeniacidon assimilis” (2023) are described below.

Molecules are shown by their SMILES. Active and inactive are the calls of the source. The calls are words filed in the database; no cut-off is given here.

Test [1] deals with RAW264.7. Nature of the test: Immunomodulatory activity in mouse RAW264.7 cells assessed as stimulation of lysosomal activity at 0.01 to 10 uM incubated for 2 hrs by acridine orange based fluorescence microplate reader analysis relative to control. The format is functional. The settings on record: dose 0.01-10 µM.
The subject of test [2] is RAW264.7. Nature of the test: Induction of ROS production in mouse RAW264.7 cells assessed as increase in intracellular ROS formation at 10 uM incubated for 3 hrs by DCFH2-DA staining based assay relative to control. The format is functional.
In test [3] the test system is RAW264.7. Nature of the test: Induction of ROS production in mouse RAW264.7 cells assessed as increase in intracellular ROS formation at 1 uM incubated for 3 hrs by DCFH2-DA staining based assay relative to control. The class given is functional, cell-based.
For test [4], the system named is RAW264.7. Nature of the test: Induction of ROS production in mouse RAW264.7 cells assessed as increase in intracellular ROS formation at 0.01 to 0.1 uM incubated for 3 hrs by DCFH2-DA staining based assay relative to control. The class given is functional. To be noted: dose 0.01-0.1 µM.

Turning to `CC[C@@H](O)CCCCCCCCCC(CCCCCCCCCCC[C@@H]1CCC(=O)O1)O[C@@H]1O[C@H](CO[C@@H]2OC[C@@H](O)[C@H](O)[C@H]2O)[C@@H](O)[C@H](O)[C@H]1O[C@@H]1OC[C@@H](O)[C@H](O)[C@H]1O` (some centres undefined), the values for the Activity in test [1], in test [2] and in test [4] were 25%, 15% and 15%, respectively. Further, in test [3], the result was inactive.
